{"source": "patent US20230039816A1", "about": "“METHOD FOR INDUCING HEPATOCYTE PLASTICITY” (Public University Corporation Yokohama City University, priority 2019, published 2023)", "key": {"[1]": {"system": "old N-Heps (D52-, D62-, D72-, D82-Hep)", "assay": "Plasticity induction of old N-Heps in RM with epigenetic regulators", "format": "cell-based, human", "details": "RM with 0.25 mM NaB, 0.5 mM VPA, 10 μM Trany, 0.5 μM RG108 or 0.5 μM BIX", "description": "(§1) The medium was changed on day 1, 3, and 5. To block the PI3K and MAPK signaling pathways, 10 μM LY29002 and a given dose of PD0325902 (0.01 μM˜1 μM) were each added to RM. […] To regulate epigenetic modification, 0.25 mM NaB, 0.5 mM VPA, 10 μM Trany, 0.5 μM RG108 and 0.5 μM BIX were added in RM. The number of cells was analyzed using an Incell analyzer 2000 (GE Healthcare) combined with Hoechst 33342 staining (Invitrogen)."}, "D22-Hep": {"system": "D22-Hep", "assay": "Induction of proliferation of D22-Hep in reprogramming medium (RM)", "format": "cell-based, human", "details": "6 days in BM+SMs/RM; PD0325901 0.01-1 μM, LY294002 10 μM, DZNep 0.1 μM, FGF2 added to BM+SMs", "description": "as §1"}, "PHHs": {"system": "PHHs", "assay": "Plasticity induction of primary human hepatocytes", "format": "cell-based", "details": "PHHs in RM+NaB vs RM", "description": "The cryopreserved PHHs were thawed according to the manufacturer's instructions. For the positive control experiments, PHHs were cultured on collagen I-coated culture dishes at a density of 1×10^5 cells/cm^2 using Williams E medium containing 5% FBS, 1 μM dexamethasone, 100 IU/mL penicillin (Thermo Fisher Scientific), 100 μg/mL streptomycin (Thermo Fisher Scientific), 4 μg/mL Human Recombinant Insulin (Sigma), 2 mM GlutaMAX (Thermo Fisher Scientific), and 15 mM HEPES (Sigma). After 24 h, the supernatant from PHHs was collected for ALB analysis. […] At day 0 of culture, 5% FBS was used to improve cell adherence. After 24 h, the medium was exchanged with a fresh medium and subsequently changed every 2 days."}, "[2]": {"system": "elderly model (mice fed CDE diet)", "assay": "Induction of hepatic progenitor cells in elderly mice on CDE diet", "format": "in vivo", "from_the_text": "Finally, we investigated whether HDACi could improve the induction of hepatic progenitor cells in elderly models. To induce hepatic progenitor cells in mice, we fed young and elderly mice with a choline-deficient, ethionine-supplemented (CDE) diet for 21 days."}, "EZH2": {"system": "EZH2", "assay": "EZH2 transcription by Q-PCR in reprogrammed hepatocytes", "format": "cell-based, human", "details": "RM treated D22-Hep", "description": "The medium was changed on day 1, 3, and 5. To block the PI3K and MAPK signaling pathways, 10 μM LY29002 and a given dose of PD0325902 (0.01 μM 1 μM) were each added to RM. […] To regulate epigenetic modification, 0.25 mM NaB, 0.5 mM VPA, 10 μM Trany, 0.5 μM RG108 and 0.5 μM BIX were added in RM. […] Total RNA was isolated using a PureLinkTM RNA Mini Kit."}, "D22-pHC": {"system": "D22-pHC", "assay": "Hepatocyte differentiation from pHC", "format": "cell-based, human", "details": "HDM with 3 μM RA, 15 days", "description": "The hepatocyte differentiation of pHCs was initiated at about 90% confluence. For 8 days, the medium was changed to HDM containing 3 μM RA and for another 7 days, the medium was changed to RA-free HDM. The medium was changed every 2 days. The total hepatocyte differentiation period was 15 days."}}, "data": [{"compound": "N[C@@H]1C[C@H]1c1ccccc1", "note": "(racemic) [tranylcypromine]", "values": [{"measurement": "proliferation of pHCs induced from D52-Heps", "setting": "[1]", "value": "such promotion was not detectable"}]}, {"compound": "COc1cc2nc(N3CCCN(C)CC3)nc(NC3CCN(Cc4ccccc4)CC3)c2cc1OC", "note": "[BIX01294]", "values": [{"measurement": "proliferation of pHCs induced from D52-Heps", "setting": "[1]", "value": "such promotion was not detectable"}]}, {"compound": "Cl.Nc1nccc2c1ncn2[C@@H]1C=C(CO)[C@@H](O)[C@H]1O", "note": "[DZNep, 3-deazaneplanocin A hydrochloride]", "values": [{"measurement": "induced cellular proliferation of D22-Hep", "setting": "D22-Hep", "value": "significant attenuation of the induced cellular proliferation"}]}, {"compound": "CCCC(=O)[O-].[Na+]", "note": "[NaB, sodium butyrate]", "values": [{"measurement": "proliferation of pHCs induced from D52-Heps", "setting": "[1]", "value": "markedly promoted the proliferation of pHCs"}, {"measurement": "plasticity induction efficiency", "setting": "PHHs", "value": "significantly increased the plasticity induction efficiency"}, {"measurement": "survival rate", "setting": "[2]; CDE diet", "value": "improved"}, {"measurement": "induced Ki67 positive and Epcam positive population", "setting": "[2]; CDE diet 21 days, liver sections", "value": "significantly increased"}]}, {"compound": "O=C(NOC[C@H](O)CO)c1ccc(F)c(F)c1Nc1ccc(I)cc1F", "note": "[PD0325901]", "values": [{"measurement": "induced cellular proliferation of D22-Hep", "setting": "D22-Hep", "value": "inhibited the FGF2-mediated cellular proliferation in a dose-dependent manner"}, {"measurement": "EZH2 transcription", "setting": "EZH2", "value": "suppressed"}]}, {"compound": "O=C(O)C(Cc1c[nH]c2ccccc12)N1C(=O)c2ccccc2C1=O", "note": "(stereo not shown) [RG108]", "values": [{"measurement": "proliferation of pHCs induced from D52-Heps", "setting": "[1]", "value": "such promotion was not detectable"}]}, {"compound": "CCCC(CCC)C(=O)O", "note": "[VPA, valproic acid]", "values": [{"measurement": "proliferation of pHCs induced from D52-Heps", "setting": "[1]", "value": "markedly promoted the proliferation of pHCs"}]}, {"compound": "CC1=C(/C=C/C(C)=C/C=C/C(C)=C/C(=O)O)C(C)(C)CCC1", "note": "[retinoic acid]", "values": [{"measurement": "ALB production and hepatocyte morphology", "setting": "D22-pHC", "value": "significant improvement in ALB production and typical hepatocyte morphology"}]}, {"compound": "FGF2: Recombinant Human FGF2, member of the FGF family", "values": [{"measurement": "induced cellular proliferation of D22-Hep", "setting": "D22-Hep", "value": "the induced proliferative ability greatly improved"}]}]}
